Assay results from patent US20200131249A1, “NOVEL PROTEINS AND USE THEREOF” (EVOLVERITAS KFT., priority 2017, published 2020).
Where no end group is shown, it is not given here.

Assays:
Type in all cases: biochemical
alternative pathway = test: C3 deposition ELISA with rat serum on LPS coated plates; conditions: final concentrations as high as 50 μM; 6-fold diluted rat serum
Experimental: (§1) ELISA-based complement classical and alternative pathway activation tests were performed on IgG or lipopolysaccharide (LPS) coated plates, respectively, using diluted individual (not pooled) rat serum. In these tests, inhibitory efficiencies of the protein of SEQ ID NO: 14 and SGMI-2 were compared and C3 deposition was used for quantification of the complement activation.
The buffers, incubation times, incubation temperatures and antibodies were the same as described in point 4.5.1.
The final dilution of the rat serum was 6-fold. The dilution of the primary antibody was 3000-fold.

human MASP-1 = biological target: T1, human MASP-1 (Homo sapiens, UniProt P48740); test: KI determination on human MASP-1 catalytic fragment; set-up: key to KI on human MASP-1: N.E.: not effective; conditions: catalytic fragment; Z-L-Lys-SBzl
T1 construct: catalytic enzyme fragments containing the three C-terminal domains: CCP1-CCP2-SP
T1 sequence (P48740 449-699 limits assumed): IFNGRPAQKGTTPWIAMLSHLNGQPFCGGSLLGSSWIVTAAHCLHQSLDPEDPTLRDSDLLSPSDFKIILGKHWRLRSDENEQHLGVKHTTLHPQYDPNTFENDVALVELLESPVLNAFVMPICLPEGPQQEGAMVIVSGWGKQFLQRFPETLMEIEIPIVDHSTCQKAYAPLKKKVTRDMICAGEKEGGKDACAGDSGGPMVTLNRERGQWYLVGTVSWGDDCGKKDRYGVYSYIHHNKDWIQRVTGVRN
T1 sequence (P48740 298-448 partner limits assumed): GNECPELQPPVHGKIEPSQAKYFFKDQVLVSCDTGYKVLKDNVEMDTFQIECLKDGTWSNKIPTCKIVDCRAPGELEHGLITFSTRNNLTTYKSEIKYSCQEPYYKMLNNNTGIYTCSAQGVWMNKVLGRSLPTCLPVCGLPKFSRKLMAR
Experimental: The inhibition equilibrium constant (KI) of all four inhibitor variants produced was measured on human MASP-2 and rat MASP-2. Additionally, KI values were measured also on human MASP-1 and human MASP-3 to assess the specificity of the inhibitors amongst the MASP enzymes. KI values of the inhibitors on bovine trypsin, a pancreatic model enzyme was also measured.
For determining the KI of the inhibitors on MASP enzymes we used catalytic enzyme fragments containing the three C-terminal domains: CCP1-CCP2-SP. The synthetic substrate used in the measurements was Z-L-Lys-SBzl hydrochloride (Sigma, C3647), from which a 10 mM stock solution was prepared. The reactions were performed in a volume of 0.2 ml at room temperature in a buffer consisting of 20 mM HEPES; 145 mM NaCl; 5 mM CaCl2; 0.05% Triton-X100. The substrate cleaved by the enzyme entered into a reaction with the 5,5′-Dithiobis(2-nitrobenzoic acid) (DTNB, Ellman's reagent, Sigma—D8130) auxiliary substrate present in the solution in 2-fold excess to Z-L-Lys-SBzl. The release of the chromophore group created in this way was monitored via the change of absorbance at 410 nm using a BioTek Synergy H4 multimode microplate reader.
A dilution sequence was prepared from the individual inhibitors, the enzyme was added to it, and it was incubated for 2 hours at room temperature. The samples were transferred on a 96-well microtiter plate (Nunc 269620). The reactions were started by adding the mixture of the substrate and the auxiliary substrate to the samples. The concentration of the substrate and the length of the measuring period were chosen so that under the given conditions the enzyme should consume less than 10% of the substrate. In this case we used 250 μM Z-L-Lys-SBzl and 500 μM DTNB in the reactions. In the course of measuring, a method developed for the characterisation of tight-binding inhibitors was used (Empie, 1982). The concentration of the product was measured as a function of reaction time. The slope of the straight line determined for the initial phase of the reaction was normalised with the slope obtained for the uninhibited enzyme reaction, and this value was multiplied with the total enzyme concentration. As a result of this we obtained the free enzyme concentration, which was plotted as a function of the total inhibitor concentration and the Ki value was determined according to the following equation:
E=y=E0−(E0+x+Ki−(((E0+x+Ki)^2)−4*E0*x)^(½))/2,
where E is the free (uninhibited) enzyme concentration, and E0 is the total enzyme concentration. The stock concentration of the inhibitors was determined by titration with bovine trypsin of known concentration. The results were calculated as the average of parallel measurements.

classical pathway = test: C3 deposition ELISA with diluted rat serum on IgG coated plates; conditions: final concentrations as high as 50 μM; 50-fold diluted rat serum
Experimental: as §1
96-well Greiner high binding ELISA plates were coated with 100 μl/well 10 μg/ml IgG (Sigma—12511) dissolved in coating buffer (50 mM sodium-carbonate pH 9.6) overnight at 4° C. Control wells contained coating buffer alone. Wells were blocked for 2 h at 37° C. with 200 μl/well 10 mg/ml bovine serum albumin (BSA) dissolved in 50 mM Tris pH 7.4, 150 mM NaCl, 0.1% Tween-20 buffer. Serial dilutions of the inhibitors were made in 10 mM HEPES pH 7.4, 150 mM NaCl, 5 mM CaCl2, 5 mM MgCl2, 0.1% Tween-20 buffer (serum dilution buffer). Rat serum was thawed on ice and diluted 25-fold in serum dilution buffer. The diluted inhibitor samples were mixed with the 25-fold diluted rat serum in 1:1 volume ratio resulting in 50-fold diluted rat serum-inhibitor samples. The samples were incubated at room temperature for 30 minutes. […] The 490 nm absorbance values were recorded using a PerkinElmer EnSpire multimode plate reader. Four parallels were measured for each data point.

KI on human MASP-1 (human MASP-1) | Substance | inhibition of the alternative pathway in rat serum (alternative pathway) | inhibition of the classical pathway in rat serum (classical pathway)
N.E. | SEQ ID NO: 14: TFPI-D2 variant protein with inhibitor loop PCRAVKR (SEQ ID NO: 4) (KPDFCFLEEDPGPCRAVKRRYFYNNQTKQCERFKYGGCLGNMNNFETLEECKNICEDG; ends and bridges not checked; cysteine pairing not given here) | neither the protein of SEQ ID NO: 14 nor SGMI-2 were able to inhibit | neither the protein of SEQ ID NO: 14 nor SGMI-2 were able to inhibit
N.E. | SGMI-2 (GSGEVTCEPGTTFKDKCNTCRCGSDGKSAVCTKLWCNQ; Synthetic protein of insect origin) [reference compound] | neither the protein of SEQ ID NO: 14 nor SGMI-2 were able to inhibit | neither the protein of SEQ ID NO: 14 nor SGMI-2 were able to inhibit
